Results on 13 compounds are retold here after patent publication US20230019280A1, “SUBSTITUTED ISOINDOLONYL 2,2'-BIP[…], ANALOGUES THEREOF, AND METHODS USING SAME” (priority 2019, published 2023).

By EC50 is commonly meant the midpoint of the concentration-response curve.

Molecules are shown by their SMILES. Read-outs that look alike come from different tables or passages of the source.

The test system of the assay is HBsAg. As to the kind of experiment: HBsAg assay (inhibition of HBsAg in HepG2.2.15 cells). Type of assay: cell-based, hepatitis B virus. The note with it: supernatant HBsAg by CLIA at day 6 after exposure of compounds. Here is the method:
Inhibition of HBsAg was determined in HepG2.2.15 cells. Cells were maintained in culture medium containing 10% fetal calf serum, […], Glutamine, penicillin/streptomycin. Cells were seeded in 96-well collagen-coated plate at a density of 30,000 cells/well. Serially diluted compounds were added to cells next day at the final DMSO concentration of 0.5%. Cells were incubated with compounds for 2-3 days, after which medium was removed. Fresh medium containing compounds was added to cells for additional 3-4 days. At day 6 after exposure of compounds, supernatant was collected, the HBsAg immunoassay (microplate-based chemiluminescence immunoassay kits, CLIA, Autobio Diagnosics Co., Zhengzhou, China, Catalog #CL0310-2) was used to determine the level of HBsAg according to manufactory instruction. Dose-response curves were generated and the EC50 value (effective concentrations that achieved 50% inhibitory effect) were determined using XLfit software. In addition, cells were seeded at a density of 5,000 cells/well for determination of cell viability in the presence and absence of compounds by using CellTiter-Glo reagent (Promega).

[1] abbreviates: read-out: sAg EC50, HepG2.2.15 cells.
Setting [2] is: Hepatitis B virus, HepG2.2.15, 144 h, read-out: sAg EC50, HepG2.2.15 cells.

For the compound `CCC1c2cc(F)c(OC)cc2C(=O)N1c1ccnc(-c2ncccn2)n1` (single isomer, unassigned) [Example 50, 3-Ethyl-5-fluoro-6-methoxy-2-(2-pyrimidin-2-ylpyrimidin-4-yl)isoindolin-1-one], the EC50 under setting [1] came to 480 nM.

In the case of `COc1cc2c(cc1OC)C(c1ccccc1)N(c1ccnc(-c3ncccn3)n1)C2=O` (single isomer, unassigned) [Example 44, 2-([2,2′-Bipyrimidin]-4-yl)-5,6-dimethoxy-3-phenylisoindolin-1-one], under setting [1], the EC50 was found to be 160 nM.

Take `CCC1c2cc(OC)c(OC)cc2C(=O)N1c1ccnc(-c2ncccn2)c1` (single isomer, unassigned) [Example 33, 3-Ethyl-5,6-dimethoxy-2-(2-(pyrimidin-2-yl)pyridin-4-yl)isoindolin-1-one]: the EC50 under setting [1] was 7 nM.

As to `CCC1c2cc(OC)c(F)cc2C(=O)N1c1ccnc(-c2ncccn2)n1` (single isomer, unassigned) [Example 52, 2-([2,2′-Bipyrimidin]-4-yl)-3-ethyl-6-fluoro-5-methoxyisoindolin-1-one], the EC50 under setting [1] came out at 400 nM.

Consider `COc1ccc(C2c3cc(OC)c(OC)cc3C(=O)N2c2ccnc(-c3ncccn3)n2)cc1` (single isomer, unassigned) [Example 10, 2-([2,2′-Bipyrimidin]-4-yl)-5,6-dimethoxy-3-(4-methoxyphenyl)isoindolin-1-one], for which the EC50 under setting [1] is 13 nM.

In the case of `CCC1c2cc(Cl)cc(F)c2C(=O)N1c1ccnc(-c2ncccn2)n1` (single isomer, unassigned) [Example 20, 2-([2,2′-Bipyrimidin]-4-yl)-5-chloro-3-ethyl-7-fluoroisoindolin-1-one], under setting [1], the 50% effective concentration (EC50) stood at 45 nM.

Take `COc1cc2c(cc1OC)C(C(C)(C)C)N(c1ccnc(-c3ncccn3)n1)C2=O` (stereo not shown) [Example 45, 2-([2,2′-Bipyrimidin]-4-yl)-3-(tert-butyl)-5,6-dimethoxyisoindolin-1-one]: under setting [2], the EC50 stood at 3 nM.

Consider `CCC1c2cc(OC)c(OC)cc2C(=O)N1c1cnc(-c2ncccn2)nc1` (stereo not shown) [Example 30, 3-Ethyl-5,6-dimethoxy-2-(2-pyrimidin-2-ylpyrimidin-5-yl)isoindolin-1-one], for which the EC50 under setting [2] came out at 48000 nM.

`CCC1c2cc(OC)c(C)cc2C(=O)N1c1ccnc(-c2ncccn2)n1` (single isomer, unassigned) [Example 4, 2-([2,2′-Bipyrimidin]-4-yl)-3-ethyl-5-methoxy-6-methylisoindolin-1-one]: the EC50 under setting [1] was 8 nM.

As to `COc1cc2c(cc1OC)C(c1ccc(C)nc1)N(c1ccnc(-c3ncccn3)n1)C2=O` (single isomer, unassigned) [Example 19, 2-([2,2′-Bipyrimidin]-4-yl)-5,6-dimethoxy-3-(6-methylpyridin-3-yl)isoindolin-1-one], the EC50 under setting [1] was found to be 390 nM.

As to `CCCC1c2cc(OC)c(OC)cc2C(=O)N1c1ccnc(-c2ncccn2)n1` (stereo not shown) [Example 38, 2-([2,2′-Bipyrimidin]-4-yl)-5,6-dimethoxy-3-propylisoindolin-1-one], the EC50 under setting [2] was 10 nM.

On to `CCC1c2cc(OC)c(F)cc2C(=O)N1c1ccnc(-c2ncccn2)n1` (single isomer, unassigned) [Example 51, 2-([2,2′-Bipyrimidin]-4-yl)-3-ethyl-6-fluoro-5-methoxyisoindolin-1-one], for which the EC50 under setting [1] is 130 nM.

As to `CCC1c2cc(OC)c(OC)cc2C(=O)N1c1nc(-c2ncccn2)ncc1F` (single isomer, unassigned) [Example 67, 3-Ethyl-2-(5-fluoro-[2,2′-bipyrimidin]-4-yl)-5,6-dimethoxyisoindolin-1-one], the EC50 under setting [1] was 10000 nM.
